“And” between values parts separate entries of the source, which are not always exact repeats. Equal entries are not always repeated.
Assay: xn = mol fraction of the nth substance listed
Settings: 313.15 K, 101 kPa, Liquid, Direct dilatometry

CC(=O)N(C)C [N,N-dimethylethanamide] + O
Settings	excess molar volume
x1 = 0.0092	-3.79e-08 m3/mol
x1 = 0.0196	-8.59e-08 m3/mol
x1 = 0.03	-1.402e-07 m3/mol
x1 = 0.0556	-2.881e-07 m3/mol
x1 = 0.0704	-3.778e-07 m3/mol
x1 = 0.0823	-4.496e-07 m3/mol
x1 = 0.0853	-4.67e-07 m3/mol
x1 = 0.091	-4.98e-07 m3/mol
x1 = 0.0968	-5.344e-07 m3/mol
x1 = 0.0981	-5.428e-07 m3/mol
x1 = 0.1063	-5.918e-07 m3/mol
x1 = 0.1088	-6.146e-07 m3/mol
x1 = 0.1167	-6.527e-07 m3/mol
x1 = 0.1258	-7.063e-07 m3/mol
x1 = 0.1364	-7.653e-07 m3/mol
x1 = 0.1478	-8.283e-07 m3/mol
x1 = 0.1603	-8.946e-07 m3/mol
x1 = 0.1651	-9.21e-07 m3/mol
x1 = 0.1728	-9.553e-07 m3/mol and -9.577e-07 m3/mol
x1 = 0.1851	-1.017e-06 m3/mol
x1 = 0.1902	-1.039e-06 m3/mol
x1 = 0.2039	-1.098e-06 m3/mol
x1 = 0.2221	-1.172e-06 m3/mol
x1 = 0.2379	-1.229e-06 m3/mol
x1 = 0.2514	-1.273e-06 m3/mol
x1 = 0.2642	-1.315e-06 m3/mol
x1 = 0.2665	-1.318e-06 m3/mol
x1 = 0.2718	-1.334e-06 m3/mol
x1 = 0.2773	-1.349e-06 m3/mol
x1 = 0.2787	-1.35e-06 m3/mol
x1 = 0.2883	-1.374e-06 m3/mol
x1 = 0.2987	-1.397e-06 m3/mol
x1 = 0.31	-1.418e-06 m3/mol
x1 = 0.3216	-1.44e-06 m3/mol
x1 = 0.3377	-1.463e-06 m3/mol
x1 = 0.352	-1.479e-06 m3/mol
x1 = 0.3679	-1.493e-06 m3/mol
x1 = 0.3759	-1.501e-06 m3/mol
x1 = 0.3782	-1.499e-06 m3/mol
x1 = 0.3812	-1.502e-06 m3/mol
x1 = 0.3884	-1.506e-06 m3/mol
x1 = 0.3918	-1.505e-06 m3/mol
x1 = 0.3948	-1.508e-06 m3/mol
x1 = 0.4047	-1.511e-06 m3/mol
x1 = 0.4141	-1.511e-06 m3/mol
x1 = 0.4248	-1.511e-06 m3/mol
x1 = 0.4402	-1.507e-06 m3/mol
x1 = 0.4583	-1.497e-06 m3/mol
x1 = 0.47	-1.489e-06 m3/mol
x1 = 0.4759	-1.487e-06 m3/mol
x1 = 0.4881	-1.473e-06 m3/mol
x1 = 0.4976	-1.464e-06 m3/mol
x1 = 0.5257	-1.43e-06 m3/mol
x1 = 0.5546	-1.38e-06 m3/mol
x1 = 0.5961	-1.295e-06 m3/mol
x1 = 0.6483	-1.173e-06 m3/mol
x1 = 0.6819	-1.082e-06 m3/mol
x1 = 0.7273	-9.449e-07 m3/mol
x1 = 0.732	-9.375e-07 m3/mol
x1 = 0.755	-8.613e-07 m3/mol
x1 = 0.7743	-8.015e-07 m3/mol
x1 = 0.7939	-7.378e-07 m3/mol
x1 = 0.8089	-6.896e-07 m3/mol
x1 = 0.8158	-6.653e-07 m3/mol
x1 = 0.8331	-6.07e-07 m3/mol
x1 = 0.8622	-5.075e-07 m3/mol
x1 = 0.8823	-4.342e-07 m3/mol
x1 = 0.884	-4.256e-07 m3/mol
x1 = 0.9064	-3.494e-07 m3/mol
x1 = 0.9258	-2.754e-07 m3/mol
x1 = 0.9539	-1.863e-07 m3/mol
x1 = 0.9568	-1.596e-07 m3/mol
x1 = 0.9716	-1.062e-07 m3/mol

From the NIST ThermoML archive (doi:10.1016/j.jct.2007.09.009)
